Series [1] can be described thus: Rectal temperature measurement. The series is classed as in vivo, mouse. To be noted: 30 and 60 mg/kg i.p., 30 min. The protocol: Figure 4 Acute effect of compound 14 on rectal temperature in mice. Compound 14 was administered i.p. 30 min before the seizure test. Control animals received vehicle only. Each experimental group consisted of 10 animals. Each bar represents the mean difference between the pre-injection and post-injection values of rectal temperature in mice (ΔT) + S.E.M. Data were analyzed with one-way ANOVA test (GraphPad Prism 8.0.1).
In this study, we used adult male Swiss albino mice (Kołacz, Laboratory Animals Breeding, Warszawa, Poland) license no. 106/2019 (Local Ethical Committee in Lublin). […]
The timed ivPTZ test was employed to evaluate the acute effect of compound 14 on the seizure thresholds for (1) the first myoclonic twitch, (2) generalized clonic seizure with loss of righting reflex, and (3) forelimb tonus. […] The changes in temperature were recorded using an electronic thermometer (ThermoWorks, Alpine, UT, USA). […]
The probe remained in the rectum for several second, allowing for temperature stabilization. The temperature was recorded just before injection of compound 14 or vehicle and 30 min later. The difference between the pre- and post-injection temperature value was then calculated (Δ °C).

Series [2] in a line: Pharmacokinetic study in mice, serum and brain (LC-MS/MS). In kind it is in vivo, mouse. To be noted: for k el: non-compartmental analysis, read-out: λz (converted). The protocol: The amount of the target compound in the serum and brain was determined by an LC-MS/MS system. […] The compound also very quickly penetrated to the murine brain and reached the maximum concentration in this organ at 15 min. However, the brain concentrations were lower than those in the serum. The compound was slowly eliminated from the body as its concentrations were still measurable up to 8 h. The terminal slope reflecting the elimination rate from the brain was similar to that observed in the serum. Male CD-1 mice weighting 28–33 g housed in conditions of the constant temperature with a 12:12 h light–dark cycle with free access to food and water were used in this study. The investigated compound was dissolved in sterile water for injection (Polpharma, Poland) and administered i.p. at a dose of 40 mg/kg. The mice were sacrificed by decapitation under isoflurane anesthesia. Blood samples were collected at 5, 15, 30, 60, 120, 240, and 480 min after dosing and brains were harvested at the same time points. Blood was allowed to clot at room temperature for 20 min and serum was separated by centrifugation at 3000 rpm for 10 min (Eppendorf MiniSpin centrifuge, Germany). The samples were stored at −80 °C until analysis. All animal procedures were approved by the First Ethical Committee on Animal Experimentation in Krakow, Poland (no. 270/2019). Concentrations of compound 14 in mouse brains and serum were measured by liquid chromatography tandem mass spectrometry (LC-MS/MS) method using SCIEX QTRAP 4500 triple quadrupole mass spectrometer coupled to Excion LC AC HPLC system (both from Danaher Corporation, Washington, DC, USA). Chromatographic separation was carried out on the Hypersil GoldTM C18 analytical column (2.1 × 50 mm, 3 µm, Thermo Scientific, USA) with the oven temperature set at 40 °C. […] The remaining time of elution was set at 95% B. The whole HPLC operation lasted 10 min. Electrospray ionization (ESI) in the positive ion mode was used for ion production. The tandem mass spectrometer was operated at unit resolution in the selected reaction monitoring mode (SRM), monitoring the transition of the protonated molecular ions m/z 489 to 132 (CE = 65 eV) and m/z 489 to 231 (CE = 29 eV) for compound 14 (first pair was used as a quantifier and the second for the identity verification qualifier) and m/z 436 to 235 (CE = 42 eV) for an internal standard (valsartan). The mass spectrometric conditions were optimized by continuous infusion of the standard solution at the rate of 7 μL/min using a Harvard infusion pump. The ion source temperature was maintained at 450 °C and the ion spray voltage was set at 5500 V. The curtain gas (CUR) was set at 40 psi and the collision gas (CAD) at medium. Data acquisition and processing were accomplished using the Analyst version 1.7 software. The calibration curves were constructed by plotting the ratio of the peak area of the studied compound to internal standard (IS) versus drug concentration and generated by weighted (1/x·x) linear regression analysis. The validated quantitation ranges for this method were within the expected concentration ranges, namely, from 0.1 to 20 µg/mL of serum and from 0.05 to 10 µg/g of brain tissue with accuracy from 93.73 to 104.29% and from 88.33 to 107% for serum and brain, respectively. No significant matrix effect was observed and there were no stability-related problems during the routine analysis of the samples. The brains were homogenized in distilled water at the ratio of 1:4 (w/v) with a tissue homogenizer LabGEN 125 (Cole-Parmer, Vernon Hills, IL, USA). […] Serum supernatant was additionally diluted 10 times with the deproteinization solution. Then, brain or serum supernatants were transferred into the autosampler vials. The autosampler temperature was maintained at 15 °C and a sample volume of 2 μL was injected into the LC-MS/MS system.

[3] abbreviates: male, CD-1, mouse, ip, brain, mice, 40 mg/kg i.p.
Setting [4] is: male, CD-1, mouse, ip, serum, mice, 40 mg/kg i.p.

Like-named read-outs stand apart in the source and are kept apart here.

The Cmax is the maximum level reached in the sampled fluid or tissue. As usually defined, the MRT is a mean duration of stay, worked out from the concentration-time curve. Usually Tmax stands for the time at which the peak concentration occurs. As a reminder, the CL/F is clearance divided by bioavailability, as obtained after extravascular dosing. As a reminder, the melting point is the temperature, or range, at which the solid turns liquid. `CN(C)C1CC(=O)N(C(C(=O)N2CCN(c3cccc(C(F)(F)F)c3)CC2)c2ccccc2)C1=O.Cl` (centres unmarked) [Compound 14, 3-(Dimethylamino)-1-(2-oxo-1-phenyl-2-(4-(3-(trifluoromethyl)phenyl)-piperazin-1-yl)ethyl)pyrrolidine-2,5-dione hydrochloride]: the melting point lay in the range of 157.8 to 159.2 °C. The “effect on body (rectal) temperature” value in series [1] is reported as “did not produce statistically significant changes”. Also, in series [2] (brain, mice, 40 mg/kg i.p.), the “AUC0-∞” value was 413.17 µg⋅min/mL(g), the peak concentration (Cmax) is given as 5.32 µg/mL(g) and the t0.5λz is 66.14 min. For the same compound, the Kp in series [2] (male, CD-1, mouse, brain and serum, ip, mice, 40 mg/kg i.p., read-out: brain-to-serum AUC ratio) was no more than 0.3. For the same compound, in series [2] (male, CD-1, mouse, brain, ip, 40 mg/kg, mice i.p., calculated for the free base, read-out: C30 min. in the brain), the concentration at 30 min is 7.2 µM. Further, the Cmax in series [2] (male, CD-1, mouse, brain, ip, 40 mg/kg, mice i.p., calculated for the free base, read-out: Cmax in the brain) is 10.9 µM. Also, the concentration at 30 min in series [2] (male, CD-1, mouse, brain, ip, mice, 40 mg/kg i.p., read-out: brain level 30 min post-dose) was 3500 ± 990 ng/g. Moreover, in series [2] (setting [3]), the mean residence time MRT was 89.2 min, the Tmax was 15 min and the k el was 0.000183 s⁻¹. Moreover, in series [2] (setting [4]), the CL/F worked out at 27 mL/min/kg, the mean residence time MRT was 93.5 min, the Tmax was 5 min and the k el was 0.000183 s⁻¹. Also, the concentration at 30 min in series [2] (male, CD-1, mouse, serum, ip, 40 mg/kg, mice i.p., calculated for the free base, read-out: C30 min. in serum) was 24.3 µM. In addition, the Cmax in series [2] (male, CD-1, mouse, serum, ip, 40 mg/kg, mice i.p., calculated for the free base, read-out: Cmax in serum) was 41.1 µM. For the same compound, the “brain concentration 15 min after administration (highest)” value in series [2] (mice, 40 mg/kg i.p.) was 5.32 ± 0.54 µg/g tissue. For the same compound, in series [2] (serum, mice, 40 mg/kg i.p.), the “AUC0-∞” value is given as 1451.22 µg⋅min/mL(g), the Cmax is listed as 20.06 µg/mL(g), the V/F was 2.57 L/kg and the t0.5λz was 64.65 min.

The values are drawn from PMC8658016, “Identification of New Compounds with Anticonvulsant and Antinociceptive Properties in a Group of 3-substituted (2,5-dioxo-pyrrolidin-1-yl)(phenyl)-Acetamides” (International Journal of Molecular Sciences, 2021).
